Reference: ChEMBL document CHEMBL3244002, “Activity-electroreduction relationship of antimicrobial metronidazole analogues” (J Med Chem, 1978)
≈ marks a conversion by molar mass, not a printed value.

Assays:
Clostridium pasteurianum = experiment: Antimicrobial activity against Clostridium pasteurianum ATCC 6013 assessed as growth inhibition after 24 hrs under anaerobic conditions by microscopic analysis; type: functional; conditions: ATCC 6013, 24 h
Trichomonas vaginalis = experiment: Antimicrobial activity against Trichomonas vaginalis ATCC 30001 assessed as growth inhibition after 48 hrs under anaerobic conditions by microscopic analysis; type: functional; conditions: ATCC 30001, 48 h
[1] = 1-Octanol-saturated McIlvaine buffer partition coefficient, log P of the compound at 80 uM at pH 6.01 by spectrophotometric analysis; type: physicochemical; conditions: 1-octanol/McIlvaine buffer
[2] = Decrease in current height for electroreduction of S-Fe bonding in clostridial ferridoxin assessed as alternating current reduction peak potential at 32 uM by polarographic technique; type: physicochemical
[3] = Effect on magnitude of electroreduction potential (Ep) of clostridial ferridoxin by alternating current polarographic technique; type: physicochemical

Compound: Cc1ncc([N+](=O)[O-])n1CCS(=O)(=O)[O-].[Na+]
- MIC (Clostridium pasteurianum): 1.17 µg/mL
- MIC (Trichomonas vaginalis): 6.25 µg/mL
- logD at 80 µM [1]: -2.05

Compound: Cc1ncc([N+](=O)[O-])n1CCOC(=O)N(C)C
- MIC (Clostridium pasteurianum): 0.39 µg/mL (≈ 1.61 µM)
- MIC (Trichomonas vaginalis): 0.195 µg/mL (≈ 0.805 µM)
- logD at 80 µM [1]: 0.455

Compound: Cc1ncc([N+](=O)[O-])n1CCSC(=S)N(C)C
- Activity [2]: 0.533 V
- MIC (Clostridium pasteurianum): 0.683 µg/mL (≈ 2.49 µM)
- Activity [3]: Not Active
- MIC (Trichomonas vaginalis): 0.195 µg/mL (≈ 0.711 µM)
- logD at 80 µM [1]: 1.28

Compound: Cc1ncc([N+](=O)[O-])n1CCN=[N+]=[N-]
- MIC (Clostridium pasteurianum): 0.39 µg/mL (≈ 1.99 µM)
- MIC (Trichomonas vaginalis): 0.341 µg/mL (≈ 1.74 µM)
- logD at 80 µM [1]: 0.755

Compound: Cc1ncc([N+](=O)[O-])n1CCCl
- MIC (Clostridium pasteurianum): 0.39 µg/mL (≈ 2.06 µM)
- MIC (Trichomonas vaginalis): 0.195 µg/mL (≈ 1.03 µM)
- logD at 80 µM [1]: 0.879

Compound: CC(=O)NCCn1c([N+](=O)[O-])cnc1C
- MIC (Clostridium pasteurianum): 0.78 µg/mL (≈ 3.68 µM)
- MIC (Trichomonas vaginalis): 10.9 µg/mL (≈ 51.6 µM)
- logD at 80 µM [1]: -0.469

Compound: CC(=O)OCCn1c([N+](=O)[O-])cnc1C
- MIC (Clostridium pasteurianum): 0.39 µg/mL (≈ 1.83 µM)
- MIC (Trichomonas vaginalis): 0.098 µg/mL (≈ 0.46 µM)
- logD at 80 µM [1]: 0.301

Compound: Cc1ncc([N+](=O)[O-])n1CCSc1ccc(Cl)cc1
- MIC (Clostridium pasteurianum): 5.47 µg/mL (≈ 18.4 µM)
- MIC (Trichomonas vaginalis): 12.5 µg/mL (≈ 42 µM)
- logD at 80 µM [1]: 1.47

Compound: Cc1ncc([N+](=O)[O-])n1CCO [METRONIDAZOLE]
- MIC (Clostridium pasteurianum): 0.244 µg/mL (≈ 1.43 µM)
- MIC (Trichomonas vaginalis): 0.098 µg/mL (≈ 0.573 µM)
- logD at 80 µM [1]: -0.051
